Data published in PMC8994274, “A proteolysis-targeting chimera molecule selectively degrades ENL and inhibits malignant gene expression and tumor growth” (Journal of Hematology & Oncology, 2022).

How the values were obtained:
[1] = test system: Molm-13 cells; assay: Cell differentiation (CD14, CD11b, FACS) in Molm-13 cells; assay type: cell-based, human; conditions: 3 μM for 5 days
Experimental: (§1) Treatment of Molm-13 cells with compound 1 for 7 days at 1 and 3 µM caused significant apoptosis of 22.7% and 67.6%, respectively (Fig. 6c and Additional file 1: Fig. S6).
(§2) For Annexin V apoptosis assay, 10^5 cells/mL were incubated with increasing concentrations of a compound for 7 days. Apoptosis was determined using the FITC Annexin V Apoptosis Detection Kit I (BD Bioscience) using the manufacturer’s protocol. For other FACS assays, cells were labeled with fluorochrome-conjugated monoclonal antibodies against human CD14 and CD11b (BD Biosciences) according to the manufacturer’s recommendation. Cells were analyzed using a FACS Calibur (BD Biosciences/Applied Biosystems), and data were processed using the program Flowjo (version7.6.5).

[2] = target: T1, mutant ENL (mENL) (Homo sapiens, UniProt Q03111+Q96SW2, INS117NHL); assay: Degradation of mutant and WT ENL in mENL-transfected HEK293T cells (Western blot); assay type: cell-based
T1 construct: FLAG (DYK); expressed in transfected cells; host or cells: HEK293T
T1 sequence (Q03111 with tags, fused parts or gaps INS117NHL): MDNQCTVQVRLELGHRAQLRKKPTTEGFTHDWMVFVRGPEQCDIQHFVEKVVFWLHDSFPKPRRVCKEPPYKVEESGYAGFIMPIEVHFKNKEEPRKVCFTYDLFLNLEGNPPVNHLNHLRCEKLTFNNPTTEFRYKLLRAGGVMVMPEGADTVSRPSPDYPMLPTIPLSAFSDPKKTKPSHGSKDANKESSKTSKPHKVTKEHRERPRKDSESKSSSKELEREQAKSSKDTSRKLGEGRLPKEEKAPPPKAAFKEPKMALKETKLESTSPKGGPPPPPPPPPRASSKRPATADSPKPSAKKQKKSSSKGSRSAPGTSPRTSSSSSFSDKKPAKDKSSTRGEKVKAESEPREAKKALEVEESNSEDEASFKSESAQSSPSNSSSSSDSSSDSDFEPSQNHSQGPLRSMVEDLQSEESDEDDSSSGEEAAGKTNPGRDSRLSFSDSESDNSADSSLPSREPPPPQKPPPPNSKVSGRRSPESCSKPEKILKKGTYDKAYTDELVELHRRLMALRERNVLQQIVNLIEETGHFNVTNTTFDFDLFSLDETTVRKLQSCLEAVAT
T1 sequence (Q96SW2 whole entry, stated change not applied): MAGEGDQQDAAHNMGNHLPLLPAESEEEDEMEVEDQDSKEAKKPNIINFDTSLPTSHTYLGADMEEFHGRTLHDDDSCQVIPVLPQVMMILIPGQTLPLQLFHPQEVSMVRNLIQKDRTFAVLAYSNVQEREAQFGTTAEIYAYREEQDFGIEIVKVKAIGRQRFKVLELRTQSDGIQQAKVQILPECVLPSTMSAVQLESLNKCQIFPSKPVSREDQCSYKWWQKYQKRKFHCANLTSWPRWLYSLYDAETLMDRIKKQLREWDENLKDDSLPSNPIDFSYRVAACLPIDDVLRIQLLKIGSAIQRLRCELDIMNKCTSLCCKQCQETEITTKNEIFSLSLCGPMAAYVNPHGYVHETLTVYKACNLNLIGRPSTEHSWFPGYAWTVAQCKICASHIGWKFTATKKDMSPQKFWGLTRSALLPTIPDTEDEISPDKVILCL
T1 sequence (Q16531 whole entry partner): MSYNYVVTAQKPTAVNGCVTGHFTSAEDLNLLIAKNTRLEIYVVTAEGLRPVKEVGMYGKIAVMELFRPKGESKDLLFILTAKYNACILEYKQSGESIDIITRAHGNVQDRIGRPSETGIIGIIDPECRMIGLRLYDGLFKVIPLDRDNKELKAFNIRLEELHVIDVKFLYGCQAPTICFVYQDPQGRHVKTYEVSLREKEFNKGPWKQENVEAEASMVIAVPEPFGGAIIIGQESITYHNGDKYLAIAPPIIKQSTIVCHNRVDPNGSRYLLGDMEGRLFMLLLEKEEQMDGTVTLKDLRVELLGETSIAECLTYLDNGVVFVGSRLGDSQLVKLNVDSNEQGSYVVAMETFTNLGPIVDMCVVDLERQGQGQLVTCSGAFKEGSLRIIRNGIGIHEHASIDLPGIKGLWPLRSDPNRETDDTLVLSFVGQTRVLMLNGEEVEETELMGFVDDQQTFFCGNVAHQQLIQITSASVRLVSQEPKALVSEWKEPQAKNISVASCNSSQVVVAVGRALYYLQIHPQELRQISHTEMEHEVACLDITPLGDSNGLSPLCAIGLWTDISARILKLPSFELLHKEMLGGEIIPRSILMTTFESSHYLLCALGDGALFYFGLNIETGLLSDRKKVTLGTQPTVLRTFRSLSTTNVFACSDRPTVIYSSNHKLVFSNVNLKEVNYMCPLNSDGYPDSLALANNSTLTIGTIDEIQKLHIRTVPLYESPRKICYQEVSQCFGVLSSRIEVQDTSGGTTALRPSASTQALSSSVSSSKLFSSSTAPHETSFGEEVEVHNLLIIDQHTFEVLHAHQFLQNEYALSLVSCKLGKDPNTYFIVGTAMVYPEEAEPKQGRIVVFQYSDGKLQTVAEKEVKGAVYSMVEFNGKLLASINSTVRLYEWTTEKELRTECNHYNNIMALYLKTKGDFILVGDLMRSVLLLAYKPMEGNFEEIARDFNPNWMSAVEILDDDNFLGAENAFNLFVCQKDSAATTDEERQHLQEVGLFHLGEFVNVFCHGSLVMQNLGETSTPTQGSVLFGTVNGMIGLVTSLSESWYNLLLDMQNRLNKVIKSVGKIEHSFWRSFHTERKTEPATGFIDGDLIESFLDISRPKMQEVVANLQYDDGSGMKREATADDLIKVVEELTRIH
Experimental: Ability of compound 1 to degrade mutant ENL, which has been implicated to cause Wilms tumor, was evaluated. […] A pcDNA3.1(+)-N-DYK plasmid containing a mutant ENL (mENL) with a short insertion of -NHL- between L117 and R118 [38] was transfected into 5 × 10^5 HEK293T cells. Upon incubation for 24 h, expression of the FLAG-tagged mENL can be dose-dependently detected with as low as 0.04 μg of the plasmid (Fig. 7a). Using a FLAG antibody appeared to be less quantitative because of a higher background staining for the control samples (Fig. 7a–c, left panels).
With 0.1 μg of the plasmid, compound 1 can efficiently degrade both WT and mutant ENL proteins with Dmax of ~ 95% at ~ 500 nM upon 24 h incubation (Fig. 7b). […] It was ineffective with 1 μg of the plasmid (not shown), presumably because the rate of mENL synthesis in cells was higher than that of 1-mediated degradation.
5 × 10^5 HEK293T cells were transfected with mENL containing pcDNA3.1(+)-N-DYK plasmid using jetPRIME (Polyplus Transfection) following the manufacturer's protocol. Upon transfection for 4 h, the media were carefully removed and the cells incubated with fresh media containing the specified concentrations of compound 1 for 24 h before further analysis (using Western blot or qPCR as described above).

[3] = test system: Molm-13 cells; assay: Antiproliferation assay (XTT), Molm-13
Experimental: Proliferation inhibition assays for suspension blood cancer cells were performed using an XTT assay kit (Biotium), following our previous methods [22]. EC50 values were determined using Prism 5 and from at least three independent experiments.

[4] = target: T2, ENL YEATS (Homo sapiens, UniProt Q03111)
T2 sequence (Q03111 1-138): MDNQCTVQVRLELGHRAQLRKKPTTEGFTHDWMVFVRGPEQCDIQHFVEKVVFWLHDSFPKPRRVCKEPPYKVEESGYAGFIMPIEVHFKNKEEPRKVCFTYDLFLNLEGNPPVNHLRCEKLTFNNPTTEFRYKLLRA
Source text: cDNA for human ENL YEATS domain (1–138) was synthesized (by Genscript) and cloned into pET-28a vector.
AlphaScreen binding assay was developed using Perkin-Elmer AlphaScreen Histidine (Nickel Chelate) Detection Kit, following a reported protocol [39]. Data were imported into Prism (version 5.0), and IC50 values from 3 independent experiments with standard deviation were obtained by using a standard dose–response curve fitting.

[5] = target: T3, ENL (Homo sapiens, UniProt Q03111); assay: ENL degradation in Molm-13 cells (Western blot); assay type: cell-based; parameters: endogenous in cells; conditions: MOLM-13, Molm-13 cells, 24 h
T3 sequence (Q03111 1-559): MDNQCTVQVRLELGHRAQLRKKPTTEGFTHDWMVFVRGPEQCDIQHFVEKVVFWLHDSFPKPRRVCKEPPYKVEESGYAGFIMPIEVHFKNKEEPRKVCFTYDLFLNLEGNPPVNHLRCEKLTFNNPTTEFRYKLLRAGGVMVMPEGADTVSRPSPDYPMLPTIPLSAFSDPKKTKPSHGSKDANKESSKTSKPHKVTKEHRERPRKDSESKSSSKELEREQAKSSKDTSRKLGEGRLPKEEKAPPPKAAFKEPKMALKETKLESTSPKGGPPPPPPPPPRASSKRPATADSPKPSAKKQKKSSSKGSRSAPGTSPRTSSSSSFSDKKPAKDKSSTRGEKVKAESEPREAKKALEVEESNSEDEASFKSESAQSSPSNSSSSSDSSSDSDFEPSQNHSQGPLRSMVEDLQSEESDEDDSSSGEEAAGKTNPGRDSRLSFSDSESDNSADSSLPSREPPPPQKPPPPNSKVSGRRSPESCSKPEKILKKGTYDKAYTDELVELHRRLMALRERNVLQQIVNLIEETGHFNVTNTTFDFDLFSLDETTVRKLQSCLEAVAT
Experimental: In addition, compound 1 efficiently degraded ENL in another MLL1-r leukemia Molm-13 cells (with MLL1-AF9) with DC50 of 47 nM and Dmax of ~ 88% (Fig. 3e). Moreover, significant ENL degradation can be detected in 2 h and depletion occurred within 24 h (Fig. 3f).
3 × 10^6 cells/well were treated with increasing concentrations of a compound for 1 day, and whole proteins were extracted. Equal amounts of proteins were separated on SDS-PAGE and transferred to PVDF membranes. The blots were probed with primary antibodies, followed by anti-rabbit IgG (Thermo Scientific) secondary antibodies. The primary antibodies against ENL (Cell signaling #14893), AF9 (Novusbio #NB100-1565), DOT1L (Cell signaling #77087), AFF4 (Abcam #ab103586), Cyclin T1 (Cell signaling #81464), H3K79me2 (Cell signaling #5427), H3K79me1 (Cell signaling #9398), Histone H3 (Cell signaling #4499), FLAG (Sigma-Aldrich #F1804), β-Actin (Cell signaling #4970) were used in this study.

[6] = test system: Molm-13 leukemia; assay: Subcutaneous Molm-13 leukemia xenograft in NOD-SCID mice; assay type: in vivo
Experimental: In vivo antitumor activity of compound 1 was evaluated in a commonly used mouse model of Molm-13 leukemia. First, in vivo toxicity was assessed in C57BL/6 mice. […] Next, 10^6 Molm-13 cells were injected subcutaneously into NOD-SCID mice, which developed palpable tumors in ~ 1 week and grew rapidly.
All of the mouse studies were conducted in strict compliance with an […] protocol. NOD-SCID mice (6–8 weeks old, from Jackson lab) were obtained and maintained under specific pathogen-free conditions. 10^6 Molm13 cells in medical grade saline were inoculated subcutaneously, and palpable tumors (2–3 mm in diameter) were developed in ~ 1 week. Mice were treated with compound 1 (30 mg/kg/day for 13 days) in saline (0.1 mL) administered intraperitoneally. Tumors were measured every day and estimated by using the formula a × b^2/2.

[7] = test system: Molm-13 cells; assay: Annexin V apoptosis assay in Molm-13 cells; assay type: cell-based; conditions: 7 days
Experimental: as §1, §2

For `C[C@H]1CCCN1Cc1nc2cc(NC(=O)c3ccc4c(cnn4CCCCCCCCNc4cccc5c4C(=O)N(C4CCC(=O)NC4=O)C5=O)c3)ccc2[nH]1` (some centres unmarked) [Compound 1], the “Cell differentiation (cells with high levels of CD14 and CD11b)” value [1] was “induced cell differentiation”, the “Degradation of WT and mutant ENLs” value ([2]; 0.2 μg of the plasmid, 500 nM, 24 h) was “reduced efficiency” and the “Degradation of WT and mutant ENLs” value ([2]; 1 μg of the plasmid) was “ineffective”. For the same compound, the Dmax ([2]; HEK-293T, 0.1 μg of the plasmid, ~ 500 nM, 24 h) was ~95%, the EC50 ([3]; Homo sapiens, MOLM-13, 168 h, read-out: EC50 against proliferation of Molm-13 cells) was 0.32 µM and the “Time-dependent activity against cell proliferation” value ([3]; Molm-13 cells) was “did not inhibit cell proliferation during the first 4 days”. The IC50 [4] was 0.17 µM, the Dmax [5] was 88% and the Body weight ([6]; 30 mg/kg/day for Day 3–15) was “did not cause significant weight losses”. For the same compound, the Tumor growth ([6]; 30 mg/kg/day for Day 3–15, intraperitoneally) was “significantly inhibited tumor growth”, the Animal survival ([6]; 30 mg/kg/day for Day 3–15, intraperitoneally, p < 0.01, 30 mg/kg/day) was “prolonged animal survivals” and the Apoptosis ([7]; 0.5 μM) was ≤ 5%. For the same compound, the Apoptosis ([7]; 1 µM) was 22.7% and the Apoptosis ([7]; 3 µM) was 67.6%.
